Consider 40 compounds from ChEMBL document CHEMBL1124563, “On the structure selectivity problem in drug design. A comparative study of benzylpyrimidine inhibition of vertebrate and bacterial dihydrofolate reductase via molecular graphics and quantitative structure-activity relationships” (J Med Chem, 1989).

SMILES strings stand for the structures.

The nature of series [1]: Partition coefficient (logD) (aqueous phase 0.1 N HCl).
Series [2] is described as follows: Partition coefficient (logD) (0.01 N NaOH). The class given is physicochemical.
For series [3], the target named is T1, Dihydrofolate reductase (Gallus gallus, UniProt P00378).
T1 sequence (P00378 whole entry): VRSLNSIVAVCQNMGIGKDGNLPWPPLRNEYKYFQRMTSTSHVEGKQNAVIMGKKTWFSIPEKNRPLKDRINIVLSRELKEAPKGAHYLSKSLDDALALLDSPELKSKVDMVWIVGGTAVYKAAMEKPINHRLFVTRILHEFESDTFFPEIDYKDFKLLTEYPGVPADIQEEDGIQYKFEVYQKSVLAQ
Description: Inhibitory activity against chicken liver dihydrofolate reductase

For series [4], the target named is Dihydrofolate reductase (Lactobacillus casei, UniProt P00381).
Description: Inhibitory activity against Lactobacillus casei dihydrofolate reductase
A short description of series [5]: Toxic index against Dihydrofolate reductase. It counts as ADME.

Dihydrofolate reductase (Lactobacillus casei, UniProt P00381), sequence (P00381 whole entry): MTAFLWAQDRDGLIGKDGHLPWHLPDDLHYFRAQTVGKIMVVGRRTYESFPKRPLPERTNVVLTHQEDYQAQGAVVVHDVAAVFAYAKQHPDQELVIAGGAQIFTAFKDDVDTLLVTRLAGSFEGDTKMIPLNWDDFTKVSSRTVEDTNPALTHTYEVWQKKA

With `CC(=O)Nc1ccc(Cc2cnc(N)nc2N)cc1[N+](=O)[O-]`, the pH-dependent lipophilicity (logD) (as a rule, the decadic logarithm of the distribution of all forms, ionised or not, between an organic phase and buffer at a given pH) in series [1] (0.1 N HCl (aqueous phase)) is -2.23.

In turn, `COc1cccc(Cc2cnc(N)nc2N)c1` showed a logD in series [2] (octanol/water) of 1.54.

Turning to `Nc1ccc(Cc2cnc(N)nc2N)cc1`, the logD in series [2] (0.01 N NaOH, read-out: logD) stood at 0.22.

For `Nc1ncc(Cc2ccc(OC(F)(F)F)cc2)c(N)n1`, in series [3], the affinity corresponds to a Ki of 47.9 µM.

In turn, `CCOc1cc(Cc2cnc(N)nc2N)ccc1OCc1ccccc1` had a logD in series [1] (0.1 N HCl (aqueous phase)) of 1. Also, the Ki (as a rule, a measure of affinity in units of concentration, obtained from inhibition or displacement) in series [4] was 0.309 µM; in series [3], 18.2 µM.

In the case of `COc1cc(Cc2cnc(N)nc2N)ccc1OCc1ccccc1`, the inhibition constant Ki in series [4] was 0.316 µM; in series [3] it was 19.1 µM. Further, in series [2] (0.01 N NaOH, read-out: logD), the logD was determined as 2.66.

In turn, `Nc1ncc(Cc2ccccc2)c(N)n1` had a logD in series [2] (octanol/water) of 1.54.

Compound `COc1ccc(Cc2cnc(N)nc2N)cc1C(F)(F)F` showed a logD in series [1] (0.1 N HCl (aqueous phase)) of -0.18. Moreover, in series [4], the affinity corresponds to a Ki of 0.0794 µM.

For `Nc1ncc(Cc2ccc(O)c(O)c2)c(N)n1`, the logD in series [1] (0.1 N HCl (aqueous phase)) was 2.08.

As for `CCCCOCc1cccc(Cc2cnc(N)nc2N)c1`, the logD in series [2] (0.01 N NaOH, read-out: logD) turned out to be 2.88.

Consider `COc1ccc(Cc2cnc(N)nc2N)cc1OCc1ccccc1`, for which the figures for the Ki in series [4] and in series [3] were 0.123 µM and 18.2 µM, respectively. Besides, the logD in series [2] (0.01 N NaOH, read-out: logD) is 2.44.

In the case of `CS(=O)(=O)Oc1ccc(Cc2cnc(N)nc2N)cc1`, the Ki in series [4] is 0.324 µM; in series [3], 49 µM. The logD in series [2] (0.01 N NaOH, read-out: logD) was 0.6.

For the compound `COc1ccc(Cc2cnc(N)nc2N)cc1OS(C)(=O)=O`, the logD in series [1] (0.1 N HCl (aqueous phase)) was -1.92. Moreover, the Ki in series [4] is 0.214 µM; in series [3], 29.5 µM.

In series [1] (0.1 N HCl (aqueous phase)), `COCCOc1c(Cc2cnc(N)nc2N)ccc(OC)c1OC` returned a logD of -1.81. Also, the Ki in series [4] was 0.55 µM; in series [3], 229 µM. Also, in series [5], the Toxic index stood at 2.62.

`COc1ccc(Cc2cnc(N)nc2N)cc1O`: the results for the Ki in series [4] and in series [3] were 0.257 µM and 141 µM, respectively. Further, the logD in series [2] (0.01 N NaOH, read-out: logD) was 0.74.

Consider `Nc1ncc(Cc2cccc(O)c2)c(N)n1`, for which the logD in series [1] (0.1 N HCl (aqueous phase)) was -1.34.

The compound `CCCCCCCOc1ccc(Cc2cnc(N)nc2N)cc1` showed a Ki in series [4] of 4.17 µM.

Compound `COCCOc1ccc(Cc2cnc(N)nc2N)cc1OCCOC` gave a logD in series [1] (octanol/water) of 1.89.

`CCc1cc(Cc2cnc(N)nc2N)cc(CO)c1CO` gave a logD in series [1] (0.1 N HCl (aqueous phase)) of -2.23. Moreover, the figures for the inhibitory constant (Ki) in series [4] and in series [3] were 0.195 µM and 263 µM, respectively. The Toxic index in series [5] is recorded as 3.13.

In series [1] (0.1 N HCl (aqueous phase)), `Nc1ncc(Cc2ccc(-c3ccccc3)cc2)c(N)n1` displayed a logD of 0.98. Also, the figures for the Ki in series [4] and in series [3] were 0.389 µM and 5.5 µM, respectively.

In the case of `Nc1ncc(Cc2ccc3c(c2)OCO3)c(N)n1`, the figures for the Ki in series [4] and in series [3] were 0.457 µM and 20.9 µM, respectively.

With `Nc1ncc(Cc2ccc(OCc3ccccc3)cc2)c(N)n1`, the Ki is 0.447 µM in series [4] and 14.8 µM in series [3].

As for `CCCCCCCCOc1c(OC)cc(Cc2cnc(N)nc2N)cc1OC`, the Ki is 2 µM in series [4] and 17 µM in series [3].

Turning to `CCCOc1cc(Cc2cnc(N)nc2N)cc(OCCC)c1`, the Ki was 0.646 µM in series [4] and 74.1 µM in series [3].

In the case of `Cc1cc(C)cc(Cc2cnc(N)nc2N)c1`, in series [4], the Ki was 1.35 µM.

In series [1] (0.1 N HCl (aqueous phase)), `Nc1ncc(Cc2ccc(O)cc2)c(N)n1` gave a logD of -1.47. The Ki is 0.417 µM in series [4] and 67.6 µM in series [3].

For the compound `COCCOc1ccc(Cc2cnc(N)nc2N)cc1OC`, in series [1] (0.1 N HCl (aqueous phase)), the logD was -1.87. Further, the Ki in series [4] was 0.288 µM; in series [3], 64.6 µM.

As to `CCCOc1cc(Cc2cnc(N)nc2N)cc(OCC)c1`, the Ki in series [4] is 0.589 µM; in series [3], 43.7 µM.

For `CCCCCCCCOc1cc(Cc2cnc(N)nc2N)ccc1OC`, the logD in series [1] (0.1 N HCl (aqueous phase)) was found to be 2.54. The Ki in series [4] was 0.316 µM; in series [3] it was 19.5 µM.

With `CCc1cc(Cc2cnc(N)nc2N)cc(NC(C)=O)c1CO`, in series [1] (0.1 N HCl (aqueous phase)), the logD was -2.17. Moreover, the Ki in series [4] was 0.151 µM; in series [3], 347 µM. This compound also gave a Toxicity index in series [5] of 3.36.

For the compound `COc1cc(Cc2cnc(N)nc2N)ccc1OS(C)(=O)=O`, the Ki in series [4] was 0.363 µM; in series [3], 25.7 µM. Moreover, the logD in series [2] (0.01 N NaOH, read-out: logD) is 0.6.

In the case of `CCc1cc(Cc2cnc(N)nc2N)cc(CC)c1CC`, the Ki in series [4] is 0.132 µM; in series [3], 5.62 µM.

For `C=C(C)c1c(OC)cc(Cc2cnc(N)nc2N)cc1OC`, the Ki is 0.0457 µM in series [4] and 67.6 µM in series [3]. Further, the logD in series [2] (0.01 N NaOH, read-out: logD) was 2.07.

Consider `COc1cc(Cc2cnc(N)nc2N)ccc1O`, for which the Ki is 0.339 µM in series [4] and 49 µM in series [3]. For the same compound, in series [2] (0.01 N NaOH, read-out: logD), the logD is 0.64.

Take `CCOc1cc(Cc2cnc(N)nc2N)cc(OCC)c1`: the Ki was 0.389 µM in series [4] and 72.4 µM in series [3].

For `COc1cc(Cc2cnc(N)nc2N)cc(OC)c1N(C)C` [ADITOPRIM], the Ki in series [4] is 0.355 µM; in series [3], 70.8 µM.

In turn, `COc1cc(Cc2cnc(N)nc2N)cc(OC)c1Br` [BRODIMOPRIM] had a Ki in series [4] of 0.0525 µM. The logD in series [2] (0.01 N NaOH, read-out: logD) stood at 2.01.

As to `COc1ccc(Cc2cnc(N)nc2N)cc1OC` [DIAVERIDINE], the logD in series [2] (0.01 N NaOH, read-out: logD) stood at 0.97.

As to `CCOc1cc(Cc2cnc(N)nc2N)cc(OCC)c1-n1cccc1` [EPIROPRIM], the Ki is 0.0468 µM in series [4] and 46.8 µM in series [3].

In series [4], `COc1cc(Cc2cnc(N)nc2N)cc(OC)c1SC` [METIOPRIM] gave a Ki of 0.0562 µM. For the same compound, in series [2] (0.01 N NaOH, read-out: logD), the logD came to 1.54.
